# Measurements published in ChEMBL document CHEMBL5244272 (Eur J Med Chem, 2021).
# Key:
# Plasmodium falciparum [1] = experiment: Potency index, ratio of artemisinin IC50 to test compound IC50 for Plasmodium falciparum D6; format: functional
# Plasmodium falciparum [2] = experiment: Potency index, ratio of artemisinin IC50 to test compound IC50 for Plasmodium falciparum W2; format: functional
# Plasmodium falciparum [3] = experiment: Antimalarial activity against Plasmodium falciparum Dd2; format: functional, organism-based
# Plasmodium falciparum [4] = experiment: Antimalarial activity against Plasmodium falciparum K1; format: functional, organism-based
# Plasmodium falciparum [5] = experiment: Antimalarial activity against Plasmodium falciparum NF54; format: functional, organism-based
# Plasmodium falciparum [6] = experiment: Antimalarial activity against late blood stage Plasmodium falciparum NF54 gametocytes; format: functional, organism-based
# Plasmodium falciparum [7] = experiment: Antimalarial activity against chloroquine-sensitive Plasmodium falciparum HB3; format: functional, organism-based
# Plasmodium berghei [8] = experiment: Antimalarial activity against Plasmodium berghei infected in mouse; format: functional; conditions: Plasmodium berghei
# Plasmodium falciparum [9] = experiment: Antimalarial activity against chloroquine-resistant Plasmodium falciparum K1; format: functional, organism-based
# Plasmodium berghei [10] = experiment: Antimalarial activity against Plasmodium berghei infected in sc dosed mouse; format: functional; conditions: for ED50: Plasmodium berghei
# Plasmodium falciparum [11] = experiment: Antimalarial activity against ART-resistant Plasmodium falciparum harboring R539T mutant assessed as increase in survival at 700 nM; format: functional
# Plasmodium falciparum [12] = experiment: Antimalarial activity against chloroquine-sensitive Plasmodium falciparum NF54; format: functional, organism-based
# Plasmodium falciparum [13] = experiment: Antimalarial activity against chloroquine sensitive Plasmodium falciparum FCR-3; format: functional, organism-based
# Plasmodium berghei [14] = experiment: Antimalarial activity against Plasmodium berghei K173 infected in mouse; format: functional
# Plasmodium falciparum [15] = experiment: Antimalarial activity against Plasmodium falciparum D10; format: functional, organism-based
# Plasmodium falciparum [16] = experiment: Antimalarial activity against Plasmodium falciparum W2; format: functional, organism-based
# Plasmodium berghei [17] = experiment: Antimalarial activity against Plasmodium berghei infected in po dosed mouse; format: functional
structure (smiles),measurement,setting,value
COC(=O)/C=C/N1C(=O)[C@H](C)[C@@H]2CC[C@@H](C)[C@@H]3CC[C@]4(C)OO[C@]32[C@H]1O4,Ratio IC50,Plasmodium falciparum [1],2
same,Ratio IC50,Plasmodium falciparum [2],1.2
C[C@H]1[C@H](N2CCN(C(=O)Nc3ccc(F)cc3)CC2)O[C@@H]2O[C@]3(C)CC[C@H]4[C@H](C)CC[C@@H]1[C@@]24OO3,IC50,Plasmodium falciparum [3],9.2 nM
same,IC50,Plasmodium falciparum [4],0.85 nM
same,IC50,Plasmodium falciparum [5],1.21 nM
C[C@H]1[C@H](N2CCN(C(=O)Nc3ccc(C(F)(F)F)cc3)CC2)O[C@@H]2O[C@]3(C)CC[C@H]4[C@H](C)CC[C@@H]1[C@@]24OO3,IC50,Plasmodium falciparum [3],12.2 nM
same,IC50,Plasmodium falciparum [4],1.12 nM
same,IC50,Plasmodium falciparum [5],1.83 nM
same,IC50,Plasmodium falciparum [6],0.6 nM
C[C@H]1[C@@H](CCOCc2cccc(F)c2)O[C@@H]2O[C@]3(C)CC[C@H]4[C@H](C)CC[C@@H]1[C@@]24OO3,IC50,Plasmodium falciparum [7],0.35 nM
same,ED50,Plasmodium berghei [8],5.08 mg/kg
same,IC50,Plasmodium falciparum [9],3.78 nM
CCCCCC[C@H]1C(=O)O[C@@H]2O[C@]3(C)CC[C@H]4[C@H](C)CC[C@@H]1[C@@]24OO3,IC100,Plasmodium berghei [10],8 mg/kg/day
FC1(F)C2CC3CC1CC(C2)C31OO[C@]2(CC[C@@H](c3ccc(OCCN4CCOCC4)cc3)CC2)O1 (some centres undefined),Activity,Plasmodium falciparum [11],<0.01%
C[C@H]1[C@H](NS(=O)(=O)N2CCN(c3ccccn3)CC2)O[C@@H]2O[C@]3(C)CC[C@H]4[C@H](C)CC[C@@H]1[C@@]24OO3,IC50,Plasmodium falciparum [6],0.04 nM
C[C@@H]1CC[C@H]2[C@@H](C)C(=O)N(/C=C\C#N)[C@@H]3O[C@H]4CC[C@@H]1[C@@]23OO4,Ratio IC50,Plasmodium falciparum [1],2.7
same,Ratio IC50,Plasmodium falciparum [2],1.7
C[C@@H]1CC[C@H]2[C@@H](C)C(=O)N(CC(=O)c3ccccc3)[C@@H]3O[C@]4(C)CC[C@@H]1[C@@]23OO4,Ratio IC50,Plasmodium falciparum [1],1.8
same,Ratio IC50,Plasmodium falciparum [2],1.8
C[C@H]1[C@H](OC(=O)c2ccc([N+](=O)[O-])cc2)O[C@@H]2O[C@@]3(C)CC[C@H]4[C@H](C)CC[C@@H]1[C@@]24OO3,IC50,Plasmodium falciparum [12],8.54 nM
C[C@H]1[C@H](n2cc(-c3ccccc3C(F)(F)F)nn2)O[C@@H]2O[C@]3(C)CC[C@H]4[C@H](C)CC[C@@H]1[C@@]24OO3,IC50,Plasmodium falciparum [13],4.6 nM
C[C@@H]1CC[C@H]2[C@@H](C)C(Nc3ccc(Cl)cc3)O[C@@H]3O[C@]4(C)CC[C@@H]1[C@]32OO4 (some centres undefined),SD50,Plasmodium berghei [14],1.77 mg/kg/day
CC1(OCc2ccccc2)CCC2CC1OO[C@]2(/C=C\c1ccc(F)cc1)c1ccccc1 (some centres undefined),IC50,Plasmodium falciparum [9],29 nM
C[C@H]1[C@H](OC(=O)c2cccc([N+](=O)[O-])c2)O[C@@H]2O[C@]3(C)CC[C@H]4[C@H](C)CC[C@@H]1[C@@]24OO3,IC50,Plasmodium falciparum [12],10.6 nM
C[C@H]1[C@@H](OCc2ccc(C(=O)N(CCCNc3ccnc4cc(Cl)ccc34)CC(=O)NC3CCCCC3)cc2)O[C@@H]2O[C@]3(C)CC[C@H]4[C@H](C)CC[C@@H]1[C@@]24OO3,IC50,Plasmodium falciparum [15],35 nM
same,IC50,Plasmodium falciparum [4],21 nM
C[C@H]1[C@H](n2cc(-c3ccc(F)cc3)nn2)O[C@@H]2O[C@]3(C)CC[C@H]4[C@H](C)CC[C@@H]1[C@@]24OO3,IC50,Plasmodium falciparum [13],1.4 nM
C[C@H]1[C@@H](OCc2ccc(C(=O)N(CCNc3ccnc4cc(Cl)ccc34)CC(=O)NC3CCCCC3)cc2)O[C@@H]2O[C@]3(C)CC[C@H]4[C@H](C)CC[C@@H]1[C@@]24OO3,IC50,Plasmodium falciparum [15],26 nM
same,IC50,Plasmodium falciparum [4],23 nM
C[C@H]1[C@H](N2CCN([C@@H]3O[C@H](CO)[C@H](O)[C@H]3O)CC2)O[C@@H]2O[C@]3(C)CC[C@H]4[C@H](C)CC[C@@H]1[C@@]24OO3,IC50,Plasmodium falciparum [15],0.66 nM
same,IC50,Plasmodium falciparum [16],0.58 nM
C[C@H]1[C@@H](CCOCc2ccccc2F)O[C@@H]2O[C@]3(C)CC[C@H]4[C@H](C)CC[C@@H]1[C@@]24OO3,ED50,Plasmodium berghei [8],5.08 mg/kg
CC1(C)OOC2(OCCC34CC5CC(CC(C5)C3)C4)CCCC1C2 (centres undefined),IC50,Plasmodium falciparum [15],580 nM
same,IC50,Plasmodium falciparum [16],440 nM
C[C@H]1[C@H](N2CCN(C(=O)c3ccc(C(F)(F)F)cc3)CC2)O[C@@H]2O[C@]3(C)CC[C@H]4[C@H](C)CC[C@@H]1[C@@]24OO3,IC50,Plasmodium falciparum [3],13.2 nM
same,IC50,Plasmodium falciparum [4],3.5 nM
same,IC50,Plasmodium falciparum [5],0.49 nM
c1cc([C@H]2CC[C@]3(CC2)OOC2(O3)C3CC4CC(C3)CC2C4)ccc1OCCC1CCNCC1 (some centres undefined),Activity,Plasmodium falciparum [11],<0.01%
COC(=O)CC[C@@H](C)[C@H]1CC[C@H]2[C@@H]3CC[C@@H]4CC5(CC[C@]4(C)[C@H]3C[C@H](OC(C)=O)[C@]12C)OOC(C)(C(F)(F)F)O5 (some centres undefined),IC50,Plasmodium falciparum [9],> 231 nM
CC1(C)OOC2(OCc3ccccc3)CCCC1C2 (centres undefined),IC50,Plasmodium falciparum [15],800 nM
same,IC50,Plasmodium falciparum [16],430 nM
CCN(CC)Cc1ccc(CO[C@H]2O[C@@H]3O[C@]4(C)CC[C@H]5[C@H](C)CC[C@@H]([C@H]2C)[C@@]35OO4)cc1,IC50,Plasmodium falciparum [7],3.1 nM
same,IC50,Plasmodium falciparum [9],1.4 nM
CNCCO[C@H]1O[C@@H]2O[C@]3(C)CC[C@H]4[C@H](C)CC[C@@H]([C@H]1C)[C@@]24OO3,IC50,Plasmodium falciparum [7],2.7 nM
same,IC50,Plasmodium falciparum [9],2.4 nM
C[C@@H]1CC[C@H]2[C@@H](C)C(Nc3cccc(Cl)c3)O[C@@H]3O[C@]4(C)CC[C@@H]1[C@]32OO4 (some centres undefined),SD50,Plasmodium berghei [14],1.62 mg/kg/day
C[C@H]1[C@H](N2CCN(S(=O)(=O)c3cccc(C(F)(F)F)c3)CC2)O[C@@H]2O[C@]3(C)CC[C@H]4[C@H](C)CC[C@@H]1[C@@]24OO3,IC50,Plasmodium falciparum [6],0.4 nM
Cc1ccc([C@@H]2O[C@@H]3O[C@]4(C)CC[C@H]5[C@H](C)CC[C@@H]([C@H]2C)[C@@]35OO4)o1,ED50,Plasmodium berghei [10],0.9 mg/kg
CC1(C)CC(O)(COc2ccc([C@H]3CC[C@]4(CC3)OOC3(O4)C4CC5CC(C4)CC3C5)cc2)CC(C)(C)N1 (some centres undefined),Activity,Plasmodium falciparum [11],<0.01%
CC1(C)OOC2(OCC34CC5CC(CC(C5)C3)C4)CCCC1C2 (centres undefined),IC50,Plasmodium falciparum [15],330 nM
same,IC50,Plasmodium falciparum [16],270 nM
N[C@H]1CC[C@@H](Oc2ccc([C@H]3CC[C@]4(CC3)OOC3(O4)C4CC5CC(C4)CC3C5)cc2)CC1 (some centres undefined),Activity,Plasmodium falciparum [11],<0.01%
C[C@H]1[C@@H](Oc2ccc(C(F)(F)F)cc2)O[C@@H]2O[C@]3(C)CC[C@H]4[C@H](C)CC[C@@H]1[C@@]24OO3,ED50,Plasmodium berghei [8],2.12 mg/kg
CCO[C@H]1O[C@@H]2O[C@]3(C)CC[C@H]4[C@H](C)CC[C@@H]([C@H]1C)[C@@]24OO3,ED90,Plasmodium berghei [17],6 mg/kg
CCC(O)C[C@H]1O[C@@H]2O[C@]3(C)CC[C@H]4[C@H](C)CC[C@@H]([C@H]1C)[C@@]24OO3 (some centres undefined),Ratio IC50,Plasmodium falciparum [1],5.8
same,Ratio IC50,Plasmodium falciparum [2],4.8
C[C@H]1[C@@H](CC(O)C(C)(C)C)O[C@@H]2O[C@]3(C)CC[C@H]4[C@H](C)CC[C@@H]1[C@@]24OO3 (some centres undefined),Ratio IC50,Plasmodium falciparum [1],5.4
same,Ratio IC50,Plasmodium falciparum [2],6.8
C[C@H]1[C@@H](OCc2ccc(CN3CCCC3)cc2)O[C@@H]2O[C@]3(C)CC[C@H]4[C@H](C)CC[C@@H]1[C@@]24OO3,IC50,Plasmodium falciparum [7],2.3 nM
same,IC50,Plasmodium falciparum [9],2.3 nM
CC1(OCc2ccccc2)CCC2CC1OO[C@]2(/C=C\c1ccc(Cl)cc1)c1ccccc1 (some centres undefined),IC50,Plasmodium falciparum [9],23 nM
C[C@H]1[C@H](N2CCN(C(=O)Nc3ccccc3)CC2)O[C@@H]2O[C@]3(C)CC[C@H]4[C@H](C)CC[C@@H]1[C@@]24OO3,IC50,Plasmodium falciparum [3],7.5 nM
same,IC50,Plasmodium falciparum [5],1.3 nM
C[C@H]1[C@H](c2cccn2C)O[C@@H]2O[C@]3(C)CC[C@H]4[C@H](C)CC[C@@H]1[C@@]24OO3,ED50,Plasmodium berghei [10],0.7 mg/kg
same,ED90,Plasmodium berghei [17],8.5 mg/kg
CC(=O)CN1C(=O)[C@H](C)[C@@H]2CC[C@@H](C)[C@@H]3CC[C@]4(C)OO[C@]32[C@H]1O4,Ratio IC50,Plasmodium falciparum [1],3.2
same,Ratio IC50,Plasmodium falciparum [2],3
C[C@H]1[C@H](n2cc(-c3cccc(Cl)c3)nn2)O[C@@H]2O[C@]3(C)CC[C@H]4[C@H](C)CC[C@@H]1[C@@]24OO3,IC50,Plasmodium falciparum [13],1.3 nM
CC(=O)/C=C/N1C(=O)[C@H](C)[C@@H]2CC[C@@H](C)[C@@H]3CC[C@]4(C)OO[C@]32[C@H]1O4,Ratio IC50,Plasmodium falciparum [1],2.54
same,Ratio IC50,Plasmodium falciparum [2],1.25
COC(=O)CC[C@@H](C)[C@H]1CC[C@H]2[C@@H]3CC[C@@H]4CC5(CC[C@]4(C)[C@H]3C[C@H](OC(C)=O)[C@]12C)OOC(c1ccccc1)(C(F)(F)F)O5 (some centres undefined),IC50,Plasmodium falciparum [9],> 231 nM
c1cc([C@H]2CC[C@]3(CC2)OOC2(O3)C3CC4CC(C3)CC2C4)ccc1OCCN1CCOCC1 (some centres undefined),Activity,Plasmodium falciparum [11],<0.01%
C[C@H]1[C@@H](OCc2ccc(C(=O)N(CCNc3ccnc4cc(Cl)ccc34)CC(=O)NC(C)(C)C)cc2)O[C@@H]2O[C@]3(C)CC[C@H]4[C@H](C)CC[C@@H]1[C@@]24OO3,IC50,Plasmodium falciparum [15],27 nM
same,IC50,Plasmodium falciparum [4],19 nM
Cc1ccccc1COC12CCCC(C1)C(C)(C)OO2 (centres undefined),IC50,Plasmodium falciparum [15],740 nM
same,IC50,Plasmodium falciparum [16],630 nM
C[C@@H]1CC[C@H]2[C@@H](C)C(Nc3ccc(C(=O)O)cc3)O[C@@H]3O[C@]4(C)CC[C@@H]1[C@]32OO4 (some centres undefined),SD50,Plasmodium berghei [14],1.36 mg/kg/day
C[C@H]1[C@H](N2CCN([C@@H]3O[C@H](CO)[C@@H](O)[C@H](O)[C@H]3O)CC2)O[C@@H]2O[C@]3(C)CC[C@H]4[C@H](C)CC[C@@H]1[C@@]24OO3,IC50,Plasmodium falciparum [15],0.87 nM
same,IC50,Plasmodium falciparum [16],0.71 nM
